pIC50: −log10 of the molar value. Read-outs that look alike come from different tables or passages of the source.
Legend:
[1] = molecular target: T1, Human cyclooxygenase 2 (COX-2) (Homo sapiens, UniProt P35354); test: COX-2 inhibition, microsomal assay; conditions: 20 min, read-out: % Inhibition of COX Enzymes in Microsomal Assays, COX-2
T1 sequence (P35354 18-604): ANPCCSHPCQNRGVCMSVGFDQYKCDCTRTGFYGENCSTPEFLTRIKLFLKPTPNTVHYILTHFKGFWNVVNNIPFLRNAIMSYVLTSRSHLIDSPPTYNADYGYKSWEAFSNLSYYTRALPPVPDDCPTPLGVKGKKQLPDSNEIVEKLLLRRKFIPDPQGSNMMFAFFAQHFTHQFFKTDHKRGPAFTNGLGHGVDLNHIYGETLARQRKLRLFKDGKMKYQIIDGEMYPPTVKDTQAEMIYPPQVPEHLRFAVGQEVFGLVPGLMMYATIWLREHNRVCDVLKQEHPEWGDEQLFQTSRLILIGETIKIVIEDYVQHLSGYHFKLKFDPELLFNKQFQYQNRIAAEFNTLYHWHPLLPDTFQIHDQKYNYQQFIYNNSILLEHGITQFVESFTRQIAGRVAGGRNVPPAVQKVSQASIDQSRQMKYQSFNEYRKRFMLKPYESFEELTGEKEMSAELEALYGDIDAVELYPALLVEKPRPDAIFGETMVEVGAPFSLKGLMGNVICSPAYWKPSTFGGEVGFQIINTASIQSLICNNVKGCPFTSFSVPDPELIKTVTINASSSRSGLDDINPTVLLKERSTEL
Description: (§1) Human cyclooxygenase 1 and 2 are expressed in a baculovirus expression system using High 5 insect cells. Microsomal fractions prepared from the cells are stored at -80° C. The assays are performed at room temperature in phosphate buffered saline. After incubating the COX-1 or COX-2 microsomes with hematin (2 μM), phenol (0.5 mM) and reduced glutathione (1 mM) for 5 minutes, inhibitor or DMSO vehicle is added and allowed to incubate for 20 minutes. Arachidonic acid (2 μM) is added and after 20 minutes the reaction is stopped by the addition of HCl (0.1 N HCl final concentration).
(§2) The inhibitory activities against COX-1 and COX-2 of the compounds described in the above Synthetic Examples were determined using the two in vitro assays described above.

[2] = molecular target: Human cyclooxygenase 1 (COX-1) (Homo sapiens, UniProt P23219); test: COX-1 inhibition, microsomal assay; conditions: 20 min, read-out: % Inhibition of COX Enzymes in Microsomal Assays, COX-1
Chain of Human cyclooxygenase 1 (COX-1) (P23219 24-599): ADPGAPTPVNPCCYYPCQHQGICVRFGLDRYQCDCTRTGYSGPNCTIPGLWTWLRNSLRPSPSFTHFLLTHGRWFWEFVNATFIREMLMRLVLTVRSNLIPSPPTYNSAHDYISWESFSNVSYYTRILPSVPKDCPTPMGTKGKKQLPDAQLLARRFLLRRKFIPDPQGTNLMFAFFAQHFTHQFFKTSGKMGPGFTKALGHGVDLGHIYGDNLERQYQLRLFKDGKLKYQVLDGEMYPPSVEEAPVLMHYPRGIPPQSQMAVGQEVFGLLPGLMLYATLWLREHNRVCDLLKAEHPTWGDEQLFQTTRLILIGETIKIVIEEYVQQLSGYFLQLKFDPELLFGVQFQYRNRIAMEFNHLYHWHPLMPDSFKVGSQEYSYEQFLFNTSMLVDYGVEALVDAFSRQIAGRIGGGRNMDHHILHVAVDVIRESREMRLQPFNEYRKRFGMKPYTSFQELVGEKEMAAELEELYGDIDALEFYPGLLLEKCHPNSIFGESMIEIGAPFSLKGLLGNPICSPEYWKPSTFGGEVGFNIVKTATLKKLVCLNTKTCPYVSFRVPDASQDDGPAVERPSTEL
Description: as §1, §2

[3] = molecular target: T2, human recombinant COX-2 (Homo sapiens, UniProt P35354); test: COX-2 inhibition, COS cell assay; type: cell-based; conditions: for inhibition at 1 µM / inhibition at 10 µM / inhibition at 0.1 µM: COS, read-out: Inhibition of COX Enzymes in COS Cell Assays, COX-2 % inhibition; for pIC50: COS cells, COX-2, read-out: Inhibition of COX Enzymes in COS Cell Assays, COX-2 IC50
T2 construct: expressed in transfected cells; host or cells: Cos-A2 cells, stably transfected
T2 sequence (P35354 18-604): T1 sequence (P35354 18-604)
Description: (§3) Cos-A2 cells stably transfected with human recombinant COX-1 or COX-2 are cultured in 96 well tissue culture plates with Dulbecco's Modified Eagle Medium supplemented with 10% fetal bovine serum, glutamine (2 mM), penicillin (50 U/mL), streptomycin ([…]) and geneticin (400 μg/mL). Media is removed from confluent monolayers and the cells are washed twice with Hank's buffered saline solution. Fresh HBSS is added, with or without inhibitor, and the cells are incubated for 30 minutes at 37° C. Arachidonic acid (30 μM) is then added and the cells are incubated for an additional one hour at 37° C. Individual experiments represent a mean of triplicate wells for control and inhibitor doses. Supernatents are removed and stored at -80° C. until assayed for PGE2 by EIA (Amersham).
as §2

[4] = molecular target: T3, human recombinant COX-1 (Homo sapiens, UniProt P23219); test: COX-1 inhibition, COS cell assay; type: cell-based; conditions: for inhibition at 1 µM / inhibition at 10 µM / inhibition at 0.1 µM: COS, read-out: Inhibition of COX Enzymes in COS Cell Assays, COX-1 % inhibition
T3 construct: expressed in transfected cells; host or cells: Cos-A2 cells, stably transfected
T3 sequence (P23219 24-599): as above
Description: as §3, §2

[5] = tested on: Carrageenan-induced paw edema; test: Carrageenan-Induced Paw Edema in Rats; type: in vivo, rat; conditions: oral, 10 mg/kg; *p < 0.05
Description: The antiinflammatory activities of two compounds in accordance with the invention (those of Examples 1 and 10) were determined in vivo and compared to those of the known antiinflammatory agents indomethacin and meloxicam, using the Carrageenan-Induced Paw Edema in Rats protocol described by C. A Winter et al. J. Pharmacol. Exp. Ther. 1963, 141, 369. Test compounds were administered orally.

| inhibition at 0.1 µg/mL [1] [%] | inhibition at 1 µg/mL [1] [%] | inhibition at 10 µg/mL [1] [%] | inhibition at 0.1 µg/mL [2] [%] | inhibition at 1 µg/mL [2] [%] | inhibition at 10 µg/mL [2] [%] | inhibition at 1 µM [3] [%] | inhibition at 10 µM [3] [%] | inhibition at 1 µM ([4]; 1 μM) [%] | inhibition at 10 µM ([4]; 10 μM) [%] | inhibition at 0.1 µM [3] [%] | inhibition at 0.1 µM ([4]; 0.1 μM) [%] | pIC50 [3] | pIC50 ([4]; COS cells, COX-1, read-out: Inhibition of COX Enzymes in COS Cell Assays, COX-1 IC50) | Structure (SMILES) | inhibition at 0.1 µM [4] [%] | inhibition at 1 µM [4] [%] | inhibition at 10 µM [4] [%] | Effect of Compounds in Carrageenen Paw Edema in Rats, % Inhibition [5] [%] |
| --- | --- | --- | --- | --- | --- | --- | --- | --- | --- | --- | --- | --- | --- | --- | --- | --- | --- | --- |
| 10 | 37 | 49 | -1 | 14 | 18 | 45 | 46 | 33 | 39 | – | – | – | – | CC(C)S(=O)(=O)C1C(=O)N(Cc2ccccc2F)C(=O)c2ccccc21 (stereo not shown) [Example 2, 2-(2-Fluorobenzyl)-4-(1-methylethyl)sulfonyl-4H-isoquinoline-1,3-dione] | – | – | – | – |
| -6 | 15 | 27 | -9 | 22 | 33 | – | – | – | – | – | – | – | – | CCCS(=O)(=O)C1C(=O)N(Cc2ccccc2)C(=O)c2ccccc21 (stereo not shown) [Example 3] | – | – | – | – |
| 0 | 30 | 20 | 4 | 15 | 15 | – | – | – | – | – | – | – | – | CCCCS(=O)(=O)C1C(=O)N(Cc2ccccc2)C(=O)c2ccccc21 (stereo not shown) [Example 4] | – | – | – | – |
| 10 | 27 | 27 | -10 | 19 | 30 | – | – | – | – | – | – | – | – | CC(C)S(=O)(=O)C1C(=O)N(Cc2cccc(Cl)c2)C(=O)c2ccccc21 (stereo not shown) [Example 6] | – | – | – | – |
| 3 | 62 | 67 | -3 | 4 | 36 | 52 | 74 | 46 | 72 | 26 | 6 | – | – | CC(C)S(=O)(=O)C1C(=O)N(Cc2ccc(Cl)cc2)C(=O)c2ccccc21 (stereo not shown) [Example 7] | – | – | – | – |
| 8 | 75 | 80 | 10 | 17 | 57 | – | – | – | – | – | – | 6.70 | 6.24 | CC(C)S(=O)(=O)C1C(=O)N(Cc2ccc(F)c(F)c2)C(=O)c2ccccc21 (stereo not shown) [Example 9] | – | – | – | – |
| 23 | 32 | 52 | 4 | 21 | 50 | 0 | 30 | 0 | 64 | – | – | 4.19 | – | O=C1c2ccccc2C(S(=O)(=O)CC(F)(F)F)C(=O)N1Cc1ccccc1 (stereo not shown) [Example 11] | – | – | – | – |
| – | – | – | 17 | 59 | 74 | – | – | 61 | 85 | – | 22 | – | – | O=C1c2ccccc2C(S(=O)(=O)c2ccccc2)C(=O)N1Cc1ccccc1 (stereo not shown) [Example 12] | – | – | – | – |
| 28 | 92 | 100 | 44 | 74 | 100 | – | – | – | – | – | – | – | – | O=C1c2ccccc2C(S(=O)(=O)c2ccc(Br)cc2)C(=O)N1Cc1ccccc1 (stereo not shown) [Example 13] | – | – | – | – |
| -13 | 63 | 100 | 59 | 93 | 100 | – | – | – | – | – | – | – | – | Cc1ccc(S(=O)(=O)C2C(=O)N(Cc3ccccc3)C(=O)c3ccccc32)cc1 (stereo not shown) [Example 14] | – | – | – | – |
| -29 | 14 | 34 | 23 | 24 | 57 | – | – | – | – | – | – | – | – | O=C1c2ccccc2C(S(=O)(=O)c2ccc3ccccc3c2)C(=O)N1Cc1ccccc1 (stereo not shown) [Example 15] | – | – | – | – |
| 21 | 74 | 97 | 33 | 81 | 93 | – | – | – | – | – | – | – | – | COc1ccc(S(=O)(=O)C2C(=O)N(Cc3ccccc3)C(=O)c3ccccc32)cc1 (stereo not shown) [Example 16] | – | – | – | – |
| 20 | 12 | 39 | 17 | 20 | 45 | – | – | – | – | – | – | – | – | CC(C)(C)c1ccc(S(=O)(=O)C2C(=O)N(Cc3ccccc3)C(=O)c3ccccc32)cc1 (stereo not shown) [Example 17] | – | – | – | – |
| 33 | 66 | 81 | 48 | 76 | 92 | – | – | – | – | – | – | – | – | O=C1c2ccccc2C(S(=O)(=O)c2ccc(F)cc2)C(=O)N1Cc1ccccc1 (stereo not shown) [Example 18] | – | – | – | – |
| 59 | 89 | 93 | 52 | 71 | 89 | – | – | – | – | – | – | – | – | O=C1c2ccccc2C(S(=O)(=O)c2ccc(Cl)cc2)C(=O)N1Cc1ccccc1 (stereo not shown) [Example 19] | – | – | – | – |
| 20 | 37 | 46 | 21 | 41 | 62 | – | – | – | – | – | – | – | – | O=C1c2ccccc2C(S(=O)(=O)c2ccc([N+](=O)[O-])cc2)C(=O)N1Cc1ccccc1 (stereo not shown) [Example 20] | – | – | – | – |
| 12 | 46 | 48 | 17 | 14 | 67 | 80 | 89 | 67 | 94 | 65 | 35 | – | – | O=C1c2ccccc2C(S(=O)(=O)c2cccs2)C(=O)N1Cc1ccccc1 (stereo not shown) [Example 21] | – | – | – | – |
| – | – | – | – | – | – | – | – | – | – | – | – | – | – | COc1ccc2c(c1)c(CC(=O)O)c(C)n2C(=O)c1ccc(Cl)cc1 [Indomethacin, reference compound] | – | – | – | 58 |

| Structure (SMILES) | inhibition at 0.1 µg/mL [1] [%] | inhibition at 1 µg/mL [1] [%] | inhibition at 10 µg/mL [1] [%] | inhibition at 0.1 µg/mL [2] [%] | inhibition at 1 µg/mL [2] [%] | inhibition at 10 µg/mL [2] [%] | inhibition at 1 µM [3] [%] | inhibition at 10 µM [3] [%] | inhibition at 1 µM ([4]; 1 μM) [%] | inhibition at 10 µM ([4]; 10 μM) [%] | inhibition at 0.1 µM [3] [%] | inhibition at 0.1 µM ([4]; 0.1 μM) [%] | pIC50 [3] | pIC50 ([4]; COS cells, COX-1, read-out: Inhibition of COX Enzymes in COS Cell Assays, COX-1 IC50) | inhibition at 0.1 µM [4] [%] | inhibition at 1 µM [4] [%] | inhibition at 10 µM [4] [%] | Effect of Compounds in Carrageenen Paw Edema in Rats, % Inhibition [5] [%] |
| --- | --- | --- | --- | --- | --- | --- | --- | --- | --- | --- | --- | --- | --- | --- | --- | --- | --- | --- |
| CC(C)S(=O)(=O)C1C(=O)N(Cc2ccccc2)C(=O)c2ccccc21 (stereo not shown) [Example 5] | 27 | 56 | 58 | -6 | 11 | 23 | 37 | 51 | – | – | 17 | – | – | – | 13 | 43 | 74 | – |
| CC(C)S(=O)(=O)C1C(=O)N(Cc2ccc(F)cc2)C(=O)c2ccccc21 (stereo not shown) [Example 8] | -1 | 68 | 86 | – | – | – | – | – | – | – | – | – | 7.05 | – | – | – | – | – |

Reference: US5741798A, “2-benzyl-4-sulfonyl-4H-isoquinolin-1,3-diones and their use as antiinflammatory agents” (priority 1997, dated 1998)
